Positions of bridges follow the written chain, without caps; N, C: chain ends. Non-standard residues stand in square brackets, D forms with d. Residues, ends and D or L forms follow the SMILES beside them. NMeY = CN[C@@H](Cc1ccc(O)cc1)C(=O)O

The target in the test is T1, Calcium and integrin-binding protein 1 (Homo sapiens, UniProt Q99828).
T1 sequence (Q99828 whole entry): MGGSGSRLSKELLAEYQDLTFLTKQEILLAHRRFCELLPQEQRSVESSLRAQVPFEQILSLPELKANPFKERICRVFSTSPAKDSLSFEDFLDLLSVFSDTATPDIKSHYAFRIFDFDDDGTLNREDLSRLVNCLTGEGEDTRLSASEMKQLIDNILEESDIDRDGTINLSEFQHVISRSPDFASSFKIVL
The experiment in a line: Displacement of Alexa Fluor 647 labelled UNC10245092 peptide from CIB1 (unknown origin) preincubated for 20 mins followed by Alexa-CIB1 phage peptide addition and measured after 20 to 30 mins by TR-FRET assay. On the technique in general: In TR-FRET formats the signal depends on donor and acceptor labels being close together.
As a reminder, the IC50 is the point on the concentration scale where inhibition reaches its midpoint. On to `CC[C@H](C)[C@@H]1NC(=O)[C@H]([C@@H](C)O)NC(=O)[C@H](Cc2c[nH]c3ccccc23)NC(=O)[C@@H]2CCCN2C(=O)CNC(=O)[C@H]([C@@H](C)O)NC(=O)[C@H](Cc2ccc(O)cc2)NC(=O)CSC[C@H](C(N)=O)NC(=O)[C@H](Cc2c[nH]c3ccccc23)NC(=O)[C@H](CCCNC(=N)N)NC1=O`, for which the IC50 is 12 nM.

Regarding `CCCC[C@@H]1NC(=O)[C@H](Cc2ccc(O)cc2)N(C)C(=O)CSC[C@@H](C(N)=O)NC(=O)[C@H](Cc2c[nH]c3ccccc23)NC(=O)[C@H](CC(N)=O)NC(=O)[C@H]([C@@H](C)CC)NC(=O)[C@H](CC(C)C)NC(=O)[C@H](Cc2c[nH]c3ccccc23)NC(=O)[C@H](Cc2ccc(O)cc2)NC(=O)[C@@H]2CCCN2C(=O)[C@@H](CCC(C)C)NC1=O`, the concentration for half-maximal inhibition (IC50) worked out at 840 nM.

As to `CCCC[C@@H]1NC(=O)[C@H](Cc2ccc(O)cc2)N(C)C(=O)CSC[C@@H](C(N)=O)NC(=O)[C@H](Cc2c[nH]c3ccccc23)NC(=O)[C@@H](Cc2ccco2)NC(=O)[C@H]([C@@H](C)CC)NC(=O)[C@H](CC(C)C)NC(=O)[C@H](Cc2c[nH]c3ccccc23)NC(=O)[C@H](Cc2ccc(O)cc2)N(C)C(=O)[C@@H]2CCCN2C(=O)[C@H](CCC(N)=O)NC1=O`, the IC50 was found to be 3900 nM.

Consider `CC[C@H](C)[C@@H]1NC(=O)[C@H](CC(C)C)NC(=O)[C@H](Cc2c[nH]c3ccccc23)NC(=O)[C@H](Cc2ccc(O)cc2)NC(=O)[C@@H]2CCCN2C(=O)[C@H](CCC(N)=O)NC(=O)[C@H](CCCCN)NC(=O)[C@H](C)NC(=O)CSC[C@@H](C(N)=O)NC(=O)[C@H](Cc2c[nH]c3ccccc23)NC(=O)[C@H](CC(N)=O)NC1=O` ({CH2CO}-AKQPYWLINWC-NH2; thioether N-11), for which the IC50 turned out to be 2500 nM.

In the case of `CC[C@H](C)[C@@H]1NC(=O)[C@H](CC(C)C)NC(=O)[C@H](Cc2c[nH]c3ccccc23)NC(=O)[C@H](Cc2ccccc2)NC(=O)[C@@H]2CCCN2C(=O)[C@H](C)NC(=O)[C@H](C)NC(=O)[C@H](Cc2ccc(O)cc2)NC(=O)CSC[C@@H](C(N)=O)NC(=O)[C@H](Cc2c[nH]c3ccccc23)NC(=O)[C@H](CC(C)C)NC1=O` ({CH2CO}-YAAPFWLILWC-NH2; thioether N-11), the IC50 was determined as 300 nM.

On to `CC[C@H](C)[C@@H]1NC(=O)[C@H](CC(C)C)NC(=O)[C@H](Cc2c[nH]c3ccccc23)NC(=O)[C@H](Cc2ccc(O)cc2)NC(=O)[C@@H]2CCCN2C(=O)[C@H](C)NC(=O)[C@H](C)NC(=O)[C@H](Cc2ccc(O)cc2)NC(=O)CSC[C@@H](C(N)=O)NC(=O)[C@H](Cc2c[nH]c3ccccc23)NC(=O)[C@H](C)NC1=O` ({CH2CO}-YAAPYWLIAWC-NH2; thioether N-11), for which the IC50 was determined as 820 nM.

Regarding `CC[C@H](C)[C@@H]1NC(=O)[C@H](CC(C)C)NC(=O)[C@H](Cc2c[nH]c3ccccc23)NC(=O)[C@H](Cc2ccc(O)cc2)N(C)C(=O)[C@@H]2CCCN2C(=O)[C@H](CCC(N)=O)NC(=O)[C@H](C)NC(=O)[C@H](Cc2ccc(O)cc2)NC(=O)CSC[C@@H](C(N)=O)NC(=O)[C@H](Cc2c[nH]c3ccccc23)NC(=O)[C@H](CC(C)C)NC1=O` ({CH2CO}-YAQP[NMeY]WLILWC-NH2; thioether N-11), the IC50 is 67 nM.

In the case of `CC[C@H](C)[C@@H]1NC(=O)[C@H](CC(C)C)NC(=O)[C@H](Cc2c[nH]c3ccccc23)NC(=O)[C@H](Cc2ccc(O)cc2)NC(=O)[C@@H]2CCCN2C(=O)[C@H](C)NC(=O)[C@H](CCCCN)NC(=O)[C@H](Cc2ccc(O)cc2)NC(=O)CSC[C@@H](C(N)=O)NC(=O)[C@H](Cc2c[nH]c3ccccc23)NC(=O)[C@H](CC(N)=O)NC1=O` ({CH2CO}-YKAPYWLINWC-NH2; thioether N-11), the IC50 worked out at 40 nM.

Consider `CC[C@H](C)[C@@H]1NC(=O)[C@H](CC(C)C)NC(=O)[C@H](Cc2c[nH]c3ccccc23)NC(=O)[C@H](Cc2ccc(O)cc2)NC(=O)[C@H](C)NC(=O)[C@H](CCC(N)=O)NC(=O)[C@H](CCCCN)NC(=O)[C@H](Cc2ccc(O)cc2)NC(=O)CSC[C@@H](C(N)=O)NC(=O)[C@H](Cc2c[nH]c3ccccc23)NC(=O)[C@H](CC(N)=O)NC1=O` ({CH2CO}-YKQAYWLINWC-NH2; thioether N-11), for which the IC50 stood at 9 nM.

These data come from ChEMBL document CHEMBL4823332, “Discovery and Development of Cyclic Peptide Inhibitors of CIB1” (ACS Med Chem Lett, 2021).
